Source: patent US20020072051A1, “Screen for identifying inhibitors of GPI anchoring” (priority 2000, published 2002)

Legend:
GPI anchor biosynthesis = experiment: in-vitro GPI anchor biosynthesis assay; assay type: biochemical; conditions: UDP-[3H]-GlcNAc, ATP, Coenzyme A, GDP-mannose; TLC
Text: Crude lysate from hypotonic lysing of spheroplasts as well as microsomal preparations can be used as an enzyme source for a coupled in vitro assay. Addition of UDP-[^3H]-GlcNAc, ATP, Coenzyme A and GDP-mannose provides the necessary substrates to synthesize a complete precursor from endogenous PI and fatty acid.

[1] = system: MCD4 catalyzed step in the GPI-anchor biosynthesis pathway; conditions: cited from earlier work
Mcd4p = target: T1, Mcd4p (Saccharomyces cerevisiae, UniProt P36051); experiment: MCD4 overexpression and inositol-labeling experiments in mcd4-174; assay type: cell-based; conditions: MCD4 overexpression; mcd4-174 mutant strain
T1 construct: overexpressed by cloning the gene under the control of its endogenous promoter in 2 micron (multi-copy) vectors; expressed in transfected cells; host or cells: yeast (S. cerevisiae) cells carrying MCD4 on a 2 micron multi-copy vector; also the mcd4-174 mutant strain for inositol labelling
T1 sequence (P36051 1-919): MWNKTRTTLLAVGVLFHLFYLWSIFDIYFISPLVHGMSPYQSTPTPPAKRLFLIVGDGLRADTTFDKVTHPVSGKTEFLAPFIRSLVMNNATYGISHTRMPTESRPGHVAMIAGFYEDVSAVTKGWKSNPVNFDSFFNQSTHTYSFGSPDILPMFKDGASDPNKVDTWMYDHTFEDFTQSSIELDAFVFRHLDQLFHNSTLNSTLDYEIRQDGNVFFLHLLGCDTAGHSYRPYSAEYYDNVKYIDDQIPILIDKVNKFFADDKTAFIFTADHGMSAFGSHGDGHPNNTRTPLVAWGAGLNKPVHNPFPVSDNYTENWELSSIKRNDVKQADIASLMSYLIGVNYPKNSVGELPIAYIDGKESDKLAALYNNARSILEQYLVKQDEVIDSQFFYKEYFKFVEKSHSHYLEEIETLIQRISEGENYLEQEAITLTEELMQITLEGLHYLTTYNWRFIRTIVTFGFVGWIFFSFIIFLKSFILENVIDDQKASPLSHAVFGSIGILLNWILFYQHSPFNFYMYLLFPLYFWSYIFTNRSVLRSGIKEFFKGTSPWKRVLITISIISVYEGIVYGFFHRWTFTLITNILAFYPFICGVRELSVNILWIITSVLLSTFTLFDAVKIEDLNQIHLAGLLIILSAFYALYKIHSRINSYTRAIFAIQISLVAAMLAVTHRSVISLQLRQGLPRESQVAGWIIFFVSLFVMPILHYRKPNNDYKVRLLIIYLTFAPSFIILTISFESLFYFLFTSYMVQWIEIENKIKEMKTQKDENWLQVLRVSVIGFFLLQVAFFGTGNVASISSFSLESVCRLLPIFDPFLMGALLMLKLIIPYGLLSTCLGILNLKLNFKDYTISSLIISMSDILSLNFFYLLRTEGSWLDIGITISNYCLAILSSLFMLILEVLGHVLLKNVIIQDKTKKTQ
Text: An overexpression resistance (OER) assay was employed to determine the cellular target of compounds isolated via the primary assay. Each of the known genes in the GPI pathway were overexpressed by cloning the gene under the control of its endogenous promoter in 2 micron (multi-copy) vectors. This is a rapid and very powerful assay, but has certain limitations. For example, with a number of hits, precipitation of the compound can be observed when spotted onto plates. […] In such cases, the ability to detect increased resistance in the shoulder region is limited by the small zone size. […] Therefore, the OER assay, while very powerful and rapid, may be limiting when working with compounds that are weakly AF.
Studies on a natural compound, CJ-19089 (also known as YW3548, a terpenoid lactone) have documented that this compound targets the MCD4 catalyzed step in the GPI-anchor biosynthesis pathway. […] This inhibitor has proven to be a very valuable tool for examining the pathway and establishing standards for chromatographic analysis. […] CJ-19089 was used as a positive control in each assay and was used in comparison to untreated samples for assay development.

wild type yeast strain = experiment: SDS hypersensitivity assay; assay type: cell-based; conditions: SDS in the growth media
Text: Published data on a mcd4 mutant strain have shown that it has a number of characteristic phenotypes including increased sensitivity to SDS, an osmotic destabilizing detergent. The presence of as little as 0.004% SDS in the growth media leads to increased sensitivity of a wild type yeast strain to GPI-anchor inhibitors and thereby allows for the rapid screening of analogs. Again, this is a potentially information-rich assay but is subject to the same technical limitations discussed above for the OER assay.

UPR pathway = experiment: UPRE::lacZ reporter induction screen (primary assay); assay type: cell-based, Saccharomyces cerevisiae; conditions: yeast cells containing 3X UPRE-CYClMINlacz, S. cerevisiae Δmdr mutant
Text: Several UPRE::lacz reporter plasmids were constructed and used to transform a S. cerevisiae Δ mdr mutant and the transformants assessed for their ability to selectively respond to tunicamycin. The reporter sequence 3X UPRE-CYClMINlacz (FIG. 2) provided a selective, sensitive, and robust screening response to tunicamycin treatment and was selected for use in the Very High Throughput Screen (vHTS; Example 2). […] The activity of an associated β-galactosidase reporter gene thus served as an indirect signal of UPR-pathway stimulation.
The yeast strains were diploid Δmdr mutants of Saccharomyces cerevisiae: MMB 1663 (3XUPRE CYClMIN::lacz). Yeast glycerol stocks were prepared by culturing MMB 1663 (3XUPRE CYClMIN::lacZ) overnight to an OD 600 nm of 0.500. The culture was concentrated by centrifugation at 1000×g for 10 minutes and the pellet resuspended in fresh medium to an OD 600 nm of 1.00. An equal volume of HR Medium with 50% glycerol was added, producing a suspension of cells with an OD 600 nm of 0.500 and a final concentration of 25% glycerol. […]
4. […] (Packard TopSeal-A Plate Tape is not required for either plate reader when volumes are ≦50 μl for 384-well or ≦200 μl for 96-well plates).
5. After 90 minutes, β-galactosidase activity was read, using a 90 to 240 minute window. […]

In the case of `C=C1[C@@H]2C[C@@H]3[C@H](C(C)C)[C@@H](OC(=O)CC(C)(O)CC(C)CC)C[C@@]3(C)C[C@H]2/C(C)=C\C[C@@H]2[C@@H](C)OC(=O)[C@H](O)[C@]12O` (some centres unmarked) [CJ-19089], the “accumulation of CJ-lipid” value (GPI anchor biosynthesis) is given as “the CJ-lipid can be visualized”, the “incorporation of [3H]myo-inositol into proteins” value [1] is given as “prevents the incorporation of [^3H]myo-inositol into proteins” and the “step of GPI anchor biosynthesis blocked” value [1] is given as “specifically blocks the addition of the third mannose to the intermediate structure Man2-GlcN-acylPI”. The toxicity [1] was “toxic”, the “transport of GPI-anchored proteins to the Golgi apparatus” value [1] was “prevents transport of GPI-anchored proteins to the Golgi apparatus” and the cellular target (Mcd4p) was “the target of this compound is Mcd4p”.
For `OC(Cn1cncn1)(Cn1cncn1)c1ccc(F)cc1F` [fluconazole], the “result on SDS plates” value (wild type yeast strain) was “unambiguous positive result”.
With tunicamycin the “lacZ reporter gene transcription (UPR-pathway stimulation)” value (UPR pathway) was “over transcribed”.
